SMILES strings stand for the structures.

Data set [1] can be described thus: Plasma protein binding in human assessed as unbound fraction by rapid equilibrium dialysis analysis. Format: ADME, cell-free. Background: In equilibrium dialysis only unbound substance equilibrates across the membrane.
Data set [2] deals with 5-hydroxytryptamine receptor 2A (Homo sapiens, UniProt P28223). The data set is described as follows: Displacement of [3H] ketanserin from human recombinant 5-HT2A receptor expressed in CHO-K1 cells incubated for 60 mins by spectrophotometric analysis. (In general: In a radioligand displacement assay an active substance lowers the binding of a labelled ligand.)
Chain of 5-hydroxytryptamine receptor 2A (P28223 whole entry): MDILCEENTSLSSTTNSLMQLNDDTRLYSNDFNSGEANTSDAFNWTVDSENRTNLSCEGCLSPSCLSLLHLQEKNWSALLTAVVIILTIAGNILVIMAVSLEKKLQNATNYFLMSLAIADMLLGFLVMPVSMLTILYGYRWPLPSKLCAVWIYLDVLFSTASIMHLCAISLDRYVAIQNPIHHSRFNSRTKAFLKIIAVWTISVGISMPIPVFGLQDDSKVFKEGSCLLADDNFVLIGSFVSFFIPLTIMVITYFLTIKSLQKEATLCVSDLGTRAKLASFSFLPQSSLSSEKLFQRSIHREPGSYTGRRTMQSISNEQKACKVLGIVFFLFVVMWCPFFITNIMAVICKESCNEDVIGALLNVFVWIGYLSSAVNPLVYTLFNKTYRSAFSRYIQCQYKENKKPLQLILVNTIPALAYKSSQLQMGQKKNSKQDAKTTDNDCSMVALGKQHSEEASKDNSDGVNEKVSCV
Data set [3] addresses T1, Alpha-1D adrenergic receptor (Homo sapiens, UniProt P25100).
T1 sequence (P25100 whole entry): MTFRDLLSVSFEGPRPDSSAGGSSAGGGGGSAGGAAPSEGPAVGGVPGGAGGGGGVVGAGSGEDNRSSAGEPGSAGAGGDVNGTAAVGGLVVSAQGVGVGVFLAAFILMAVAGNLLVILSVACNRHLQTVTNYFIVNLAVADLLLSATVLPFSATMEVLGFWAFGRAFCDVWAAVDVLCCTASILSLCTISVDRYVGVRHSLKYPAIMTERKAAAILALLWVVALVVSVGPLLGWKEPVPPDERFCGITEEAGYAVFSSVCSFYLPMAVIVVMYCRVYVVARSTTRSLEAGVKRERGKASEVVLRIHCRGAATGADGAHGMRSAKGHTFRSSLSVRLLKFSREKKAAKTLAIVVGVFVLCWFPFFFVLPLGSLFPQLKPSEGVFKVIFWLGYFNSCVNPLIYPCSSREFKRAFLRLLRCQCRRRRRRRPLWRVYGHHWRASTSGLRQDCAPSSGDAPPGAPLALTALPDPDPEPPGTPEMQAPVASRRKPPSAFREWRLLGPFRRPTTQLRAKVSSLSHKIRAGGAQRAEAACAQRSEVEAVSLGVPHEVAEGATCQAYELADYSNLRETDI
The data set is described as follows: Displacement of [3H] prazosin from human recombinant adrenergic alpha-1d receptor expressed in HEK293 cells assessed as inhibition constant incubated for 60 mins by spectrophotometric analysis. Format: cell-based.

Data set [4] deals with Amine oxidase [flavin-containing] A (Homo sapiens, UniProt P21397). In words: Inhibition of human recombinant MAO-A expressed in insect cells assessed as inhibition of 4-hydroxyquinoline formation using kynuramine as substrate incubated for 75 mins by spectrophotometric analysis. Also noted: species or system Insect cell.
Chain of Amine oxidase [flavin-containing] A (P21397 whole entry): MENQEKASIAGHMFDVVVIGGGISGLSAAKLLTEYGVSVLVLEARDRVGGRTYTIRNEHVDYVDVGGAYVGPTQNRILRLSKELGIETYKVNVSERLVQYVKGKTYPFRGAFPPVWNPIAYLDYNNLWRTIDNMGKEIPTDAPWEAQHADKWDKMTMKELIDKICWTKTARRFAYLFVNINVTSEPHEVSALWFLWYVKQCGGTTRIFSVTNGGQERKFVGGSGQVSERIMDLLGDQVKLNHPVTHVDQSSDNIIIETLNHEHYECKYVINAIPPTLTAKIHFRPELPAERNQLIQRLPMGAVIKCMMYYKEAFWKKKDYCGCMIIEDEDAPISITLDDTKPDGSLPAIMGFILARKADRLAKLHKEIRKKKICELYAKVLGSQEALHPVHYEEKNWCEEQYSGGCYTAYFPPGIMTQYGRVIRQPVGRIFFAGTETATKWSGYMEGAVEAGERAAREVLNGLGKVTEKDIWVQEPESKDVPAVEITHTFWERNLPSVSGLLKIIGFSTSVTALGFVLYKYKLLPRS
In data set [5] the target is 5-hydroxytryptamine receptor 5A (Homo sapiens, UniProt P47898). In words: Displacement of [3H] LSD from human recombinant 5-HT5A receptor expressed in CHO-K1 cells incubated for 60 mins by spectrophotometric analysis. Format: cell-based.
Chain of 5-hydroxytryptamine receptor 5A (P47898 whole entry): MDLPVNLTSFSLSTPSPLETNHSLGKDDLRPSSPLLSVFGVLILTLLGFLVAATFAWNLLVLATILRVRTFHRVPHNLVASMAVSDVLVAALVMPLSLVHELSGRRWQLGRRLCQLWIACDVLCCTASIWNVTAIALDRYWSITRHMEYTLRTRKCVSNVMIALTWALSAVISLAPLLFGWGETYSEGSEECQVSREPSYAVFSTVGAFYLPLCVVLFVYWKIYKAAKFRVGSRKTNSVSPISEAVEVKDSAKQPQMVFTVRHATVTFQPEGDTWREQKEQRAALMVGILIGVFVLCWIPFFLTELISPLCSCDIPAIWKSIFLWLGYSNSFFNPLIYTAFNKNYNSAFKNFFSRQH
Data set [6] can be described thus: Metabolic stability in human liver mitochondrial fraction assessed as mean half life measured per million cells incubated upto 60 mins by LC-MS/MS analysis. Format: ADME, mitochondria, Mitochondria.
Data set [7] in a line: Distribution coefficient, mean logD of compound at pH 7.4 in octanol and aqueous solution incubated for 95 mins under shaking condition by LC-MS/MS analysis. Format: physicochemical.
Data set [8] has as its target 5-hydroxytryptamine receptor 6 (Homo sapiens, UniProt P50406). The data set is described as follows: Displacement of [3H] LSD from human recombinant 5-HT6 receptor expressed in human HeLa cells incubated for 120 mins by spectrophotometric analysis. Format: cell-based.
Data set [9] deals with T2, Alpha-1B adrenergic receptor (Homo sapiens, UniProt P35368).
T2 sequence (P35368 whole entry): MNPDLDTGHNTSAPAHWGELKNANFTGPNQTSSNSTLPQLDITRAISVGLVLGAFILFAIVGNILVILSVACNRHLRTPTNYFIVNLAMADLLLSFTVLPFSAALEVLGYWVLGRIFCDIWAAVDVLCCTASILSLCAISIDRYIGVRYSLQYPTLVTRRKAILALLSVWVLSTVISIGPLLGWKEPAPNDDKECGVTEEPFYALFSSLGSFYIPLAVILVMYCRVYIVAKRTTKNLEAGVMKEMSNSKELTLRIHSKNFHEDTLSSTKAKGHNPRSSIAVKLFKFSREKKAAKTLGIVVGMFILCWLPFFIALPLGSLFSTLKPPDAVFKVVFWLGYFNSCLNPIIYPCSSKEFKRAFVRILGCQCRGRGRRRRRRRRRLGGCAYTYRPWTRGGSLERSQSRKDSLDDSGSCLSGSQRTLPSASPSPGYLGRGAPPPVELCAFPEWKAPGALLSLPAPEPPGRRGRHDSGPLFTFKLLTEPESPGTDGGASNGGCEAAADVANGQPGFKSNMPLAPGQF
In words: Displacement of [3H] prazosin from human recombinant adrenergic alpha-1b receptor expressed in […] cells assessed as inhibition constant incubated for 60 mins by spectrophotometric analysis. Format: cell-based.

In the next data set the target is MAO-A (Homo sapiens, UniProt P21397). The data set is described as follows: Inhibition of human recombinant MAO-A expressed in insect cells assessed as inhibition of 4-hydroxyquinoline formation at 10 uM using kynuramine as substrate incubated for 75 mins by spectrophotometric analysis relative to control. Details: species or system Insect cell. The settings on record: probe kynuramine.
Chain of MAO-A (P21397 whole entry): as the sequence (P21397 whole entry) above

The nature of data set [10]: Displacement of [3H] idazoxan from imidazoline receptor 2 (unknown origin) by spectrophotometric analysis. Details: species or system Homo sapiens.
Data set [11] deals with T2, Alpha-1B adrenergic receptor. The data set is described as follows: Displacement of [3H] prazosin from human recombinant adrenergic alpha-1b receptor expressed in […] cells incubated for 60 mins by spectrophotometric analysis. Format: cell-based.
The target of data set [12] is 5-hydroxytryptamine receptor 1B (Homo sapiens, UniProt P28222). In words: Displacement of [3H] GR125743 from human recombinant 5-HT1B receptor expressed in […] cells incubated for 90 mins by spectrophotometric analysis. Format: cell-based.
Chain of 5-hydroxytryptamine receptor 1B (P28222 whole entry): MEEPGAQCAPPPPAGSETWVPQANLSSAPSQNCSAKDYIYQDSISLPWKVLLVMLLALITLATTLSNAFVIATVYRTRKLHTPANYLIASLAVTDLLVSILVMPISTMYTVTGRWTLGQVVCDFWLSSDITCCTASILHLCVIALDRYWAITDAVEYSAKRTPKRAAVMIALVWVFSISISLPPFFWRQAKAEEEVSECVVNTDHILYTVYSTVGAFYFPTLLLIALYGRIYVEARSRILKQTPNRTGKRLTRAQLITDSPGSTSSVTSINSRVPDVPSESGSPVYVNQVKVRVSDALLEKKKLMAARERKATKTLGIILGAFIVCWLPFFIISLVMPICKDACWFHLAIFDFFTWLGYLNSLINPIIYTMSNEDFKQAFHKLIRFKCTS
Data set [13] can be described thus: Metabolic stability in human hepatocytes assessed as intrinsic clearance measured per million cells incubated upto 60 mins by LC-MS/MS analysis. Format: ADME, cell-based, Hepatocyte. Conditions: read-out: CLH.
For data set [14], the target named is T1, Alpha-1D adrenergic receptor. In words: Displacement of [3H] prazosin from human recombinant adrenergic alpha-1d receptor expressed in HEK293 cells incubated for 60 mins by spectrophotometric analysis. Format: cell-based.
For data set [15], the target named is T3, Alpha-2A adrenergic receptor (Homo sapiens, UniProt P08913).
T3 sequence (P08913 whole entry): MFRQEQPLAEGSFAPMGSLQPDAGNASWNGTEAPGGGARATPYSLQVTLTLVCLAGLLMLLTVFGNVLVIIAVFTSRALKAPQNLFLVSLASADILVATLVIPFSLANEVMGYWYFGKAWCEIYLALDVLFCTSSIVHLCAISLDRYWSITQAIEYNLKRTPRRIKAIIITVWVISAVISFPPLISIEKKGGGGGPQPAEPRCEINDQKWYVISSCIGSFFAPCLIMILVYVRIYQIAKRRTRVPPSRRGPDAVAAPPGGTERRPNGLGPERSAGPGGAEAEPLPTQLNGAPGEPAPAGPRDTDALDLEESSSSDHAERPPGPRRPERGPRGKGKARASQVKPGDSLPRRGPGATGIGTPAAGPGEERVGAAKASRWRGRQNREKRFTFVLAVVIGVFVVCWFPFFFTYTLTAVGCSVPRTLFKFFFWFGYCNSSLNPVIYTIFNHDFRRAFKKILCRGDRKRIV
In words: Displacement of [3H]-rauwolscine from human recombinant adrenergic alpha-2A receptor expressed in CHO-K1 cells incubated for 60 mins by spectrophotometric analysis. Format: cell-based.

Chain of 5-hydroxytryptamine receptor 6 (P50406 whole entry): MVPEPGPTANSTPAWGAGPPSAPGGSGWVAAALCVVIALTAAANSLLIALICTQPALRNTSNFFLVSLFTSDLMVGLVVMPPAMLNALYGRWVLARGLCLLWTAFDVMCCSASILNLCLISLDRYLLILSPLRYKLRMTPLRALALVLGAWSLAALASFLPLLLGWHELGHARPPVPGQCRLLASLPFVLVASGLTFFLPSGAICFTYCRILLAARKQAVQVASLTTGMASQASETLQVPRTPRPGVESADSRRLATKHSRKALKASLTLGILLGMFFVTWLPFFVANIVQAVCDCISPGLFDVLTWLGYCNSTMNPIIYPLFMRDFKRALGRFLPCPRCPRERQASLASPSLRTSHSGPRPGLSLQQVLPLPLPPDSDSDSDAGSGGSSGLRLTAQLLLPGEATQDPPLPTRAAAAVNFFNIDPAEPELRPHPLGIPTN

Consider `CN(C)CCc1c[nH]c2ccccc12.O=C(O)/C=C/C(=O)O`, for which, in data set [1], the fraction unbound turned out to be 0.68. Also, the IC50 in data set [2] stood at 0.15 µM; in data set [4], 1.18 µM; in data set [5] it was 3.32 µM; in data set [8] it was 1.21 µM; in data set [10], 1.93 µM; in data set [11], 0.67 µM. In addition, the results for the IC50 in data set [12], in data set [14] and in data set [15] were 2.42 µM, 3.07 µM and 2.22 µM, respectively. The inhibitory constant (Ki) turned out to be 1.51 µM in data set [3] and 0.26 µM in data set [9]. The half-life in data set [6] was 8.3 min. For the same compound, the pH-dependent lipophilicity (logD) at 1.583 h in [7] turned out to be 0.15. Further, on MAO-A, the inhibition at 1.25 h, 10 µM stood at 85.3%. The hepatocyte CLint in data set [13] turned out to be 16.6 µL/min/1e6 cells.

On to `O=C(O)/C=C/C(=O)O.[2H]C([2H])(Cc1c[nH]c2ccccc12)N(C)C`, for which the fraction unbound in [1] worked out at 0.7. In addition, the IC50 in [2] is 0.22 µM; in data set [4] it was 1.5 µM; in data set [5], 3.32 µM; in data set [8] it was 1.08 µM; in data set [10], 2.6 µM; in data set [11] it was 0.93 µM. Further, the IC50 in [12] is 1.99 µM; in data set [14], 3.26 µM; in data set [15], 3.03 µM. Also, the Ki came to 1.6 µM in data set [3] and 0.37 µM in data set [9]. The half-life in data set [6] is 85.1 min. In data set [7], this compound gave a logD at 1.583 h of 0.11. In addition, the inhibition at 1.25 h, 10 µM on MAO-A was determined as 84.3%. Besides, in [13], the hepatocyte CLint came to 7.3 µL/min/1e6 cells.

For orientation: fraction unbound means the share of the substance not bound to proteins or other matrix. In general, IC50 refers to the concentration that inhibits the measured activity by half. As usually defined, the Ki is the equilibrium dissociation constant of an inhibitor or competing ligand from its target. For orientation: half-life means the time needed for the level to fall by half in the phase considered. The logD is the decadic logarithm of the distribution of all forms, ionised or not, between an organic phase and buffer at a given pH. A lower logD goes with a more hydrophilic compound. Broadly, the inhibition is how much of the control response was suppressed.

These data come from ChEMBL document CHEMBL5370593, “Discovery and In Vitro Characterization of SPL028: Deuterated N,N-Dimethyltryptamine” (ACS Med Chem Lett, 2023).
